The subject of the assay is female Aedes aegypti. As to the kind of experiment: K&D module high-throughput feeding assay. In kind it is in vivo. The following applies: for mean fed / mean probed: five females/cell. The method, then: Highthrouhput Feeding Assay: The K&D module was developed at USDA for evaluating feeding deterrence and toxicity of candidate topical repellents against hemophagus arthropod vectors (Klun, J. A., and M. Debboun, J. Med. Entomol., 37: 177-181 (2000)). In the present study the K&D module was used as a highthrouhput screening tool to evaluate response of Ae. aegypti to attractant\feeding stimuli.
In vitro bioassays were conducted as described by Klun et. al., 2000. […] The three treatments were randomly assigned to consecutive cells in 2,6-cell reservoirs connected in series to a single water-bath pump; thus, 4 replicates could be tested/run.
Tests were performed in an Air Science USA hood, with an air movement velocity of approx. 110-120 ft./min., temperature of 25-27° C., and RH of 15-25%. A six-celled reservoir was connected to and heated by a constant-temperature (38° C.) water circulator (Lauda E100, Wobser GMGH and Co., Konigshofell, Germany).
Prior to each test, the upper surface of each reservoir was coated with a thin layer of high-vacuum silicone grease (Dow Corning Corp., Midland, Mich.), and the cells then filled (approx. 6 ml. capacity) or topped-off with the following: (1) expired human red blood cells suspended in citrate-phosphate-dextrose-adenine (CPDA) solution, not more than 1 month past expiration date, and to which 110 mg ATP/35 ml. blood-CPDA had been added on the day of testing; or (2) CPDA+ATP×10^−3, usually made up or diluted to 10^−3 ATP on the day of testing.
The filled cells were then covered with an Edicol collagen membrane strip (Devro, Sandy Run, S.C.), and then with a just-treated (110 μl of 4.54 nmol/μl treatment or control solution) organdy cloth strip (G Street Fabrics, Rockville, Md.).
Mosquitoes used in the tests were either Aedes aegypti (Liverpool) or Aedes albopictus (Asian Tiger mosquitoes (ATMs)). Ae. aegypti and Ae. albopictus were originally obtained from colonies at the Walter Reed Army Institute of Research (WRAIR), Silver Spring, Md., and were maintained in colonies at the Beltsville Agricultural Research Center, USDA, ARS, Beltsville, Md. The larvae were reared (Gerber, E. J., et al., Manual for mosquito rearing and experimental techniques, Am. Mosq. Control Assoc. Bull. 5 (revised), AMCA, Inc., Lake Charles, La. (1994)) by feeding larvae ground tropical fish pellets (Hikari Cichlid Gold Fish Food, Kamihata Fish Ind. Ltd., Himeji, Japan, www.hikari.info). Adults were held at 12:12 h (light:dark) photoperiod at 26° C. and 50% RH, and fed with a cotton pad moistened with 10% aqueous sucrose solution. For both species, adult mosquitoes used in the tests were between 5-10 days old, and were kept on water pads only for 24 hrs. prior to testing. Ae. aegypti used in a given test session were all loaded into K&D modules at one time, with five adult females/cell, and tested within I-2 hrs.
K&D modules containing five adult females/cell were placed over a Teflon separator atop each reservoir; the sliding floors opened allowing access to the treated organdy cloth and membrane-covered cell, and the number of mosquitoes biting (proboscis inserted through the cloth) and/or observed to be engorged within each cell at the end of a 3-5 min. exposure period was recorded. Mosquitoes were used only once in a test, and then frozen and discarded.
Only tests in which three or more females fed in the control cell were analyzed, as lower feeding rates are indicative of substandard feeding readiness of that group of mosquitoes.
Feeding/probing responses observed on control, standard, and experimental compound-treated cells were compared using an R-code statistical analysis (Chauhan, K. R., et al., Journal of Medical Entomology, 42: 643-646 (2005)).

The structures appear in SMILES notation.

The results in this text go back to patent US10952434B2, “Compositions and methods for attracting insects” (The United States of America, as Represented by the …, priority 2016, dated 2021).

`CC1COC(C)(c2ccc3c(c2)C(C)(C)CCC3(C)C)O1` (stereo not drawn) [Okoumal]: the mean fed is, setting by setting: (0.1% concentration) 3.6; (0.25% concentration) 2.8; (1% concentration) 3.5; (5% concentration) 2.8. Also, the mean probed (0.1% concentration) is recorded as 3.3, the mean probed (0.25% concentration) amounted to 3, the mean probed (1% concentration) is listed as 3.9 and the mean probed (5% concentration) is recorded as 2.9. Also, for the setting “four different concentrations, twenty replicates”, the “feeding compared with control, in words” value is “consistent feeding on par with either control or better”.
